According to patent US8524729B2, “Cinnamoyl derivatives and use thereof” (Sumitomo Chemical Company, Limited, priority 2003, dated 2013):

Experiment: Inhibition of the ability of TGF-β to promote transcription of a Type I collagen gene, COL-Luc luciferase reporter in normal human fetal skin fibroblasts
Assay type: cell-based
Conditions: final concentration 1 μM; TGF-β added after one hour; 40 hours; normal human fetal skin fibroblast transfected with COL-Luc and pCMV-β-gal; read-out: Inhibition percentage
Procedure: 1×10^8 cells of a normal human fetal skin fibroblast (Clontech, catalogue No. CC-2509) were cultured at 37° C. overnight under 5% CO2 atmosphere. After the cultured cells were washed with a sodium phosphate buffer (hereinafter, referred to as PBS) twice, 3 ml of PBS was added thereto and the cells were scraped away the wall of a vessel using a cell scraper (Nalgen, catalogue No. 179693). The scraped cells were collected by centrifugation (1,500 rpm, 4° C., 15 min), and these were suspended in 20 ml of PBS and centrifuged again. To the resulting precipitates were added 11 ml of Solution 2 and 4.8 μl of pronase of DNA Extraction Kit (Stratagene, catalogue No. 200600). After shaken at 60° C. for 1 hour, the resulting mixture was allowed to stand in ice for 10 minutes. Then, 4 ml of Solution 3 of the kit was added to the mixture. After mixed, the mixture was allowed to stand in ice for 5 minutes and then centrifuged (3,000 rpm, 4° C., 15 min) to recover a supernatant. To the recovered supernatant was added 2 μl of RNase per 1 ml of the supernatant and the mixture was allowed to stand at 37° C. for 15 minutes. To the mixture was added 2-fold volume of ethanol. After mixed, a white thread-like substance (genomic DNA) appeared and the substance was recovered. The recovered genomic DNA was washed with 70% ethanol and then air-dried. The air-dried genomic DNA was dissolved in 500 μl of 10 mM Tris-HCl, 1 mM EDTA (pH 8.0) (hereinafter, referred to as TE).
The resulting genomic DNA solution (the amount equivalent to 1 μg of genomic DNA), each 1 μl ([…]) of an oligonucleotide consisting of the nucleotide sequence represented by SEQ ID No:1 and an oligonucleotide consisting of the nucleotide sequence represented by SEQ ID No: 2, 29 μL of distilled water, 5 μl of the buffer attached to TaKaRa LA Taq (TAKARA SHUZO, catalogue No. RR002A), 5 μL of a Mg^2+ solution, 5 μL of a dNTP mixture and 0.5 μl of TaKaRa LA Taq (TAKARA SHUZO, catalogue No. RR002A) were mixed. After the resulting mixed solution was incubated at 94° C. for 5 minutes, the mixed solution was subjected to 30 cycles, in which one cycle consists of incubation at 94° C. for 1 minute, at 60° C. for 1 minute and then at 72° C. for 1 minute. The mixed solution was electrophoresed on a 2% agarose gel to recover about 0.5 kb of a DNA. The recovered DNA was treated with phenol/chloroform and then precipitated with ethanol to recover the DNA. The resulting DNA was dissolved in ultrapure water. To this solution were added 2.5 μl of NheI and 2.5 μl of HindIII, and then incubated at 37° C. for 3 hours. Then, the solution was electrophoresed on a 2% agarose gel to recover […] of a DNA. The recovered DNA was precipitated with ethanol to recover again the DNA (hereinafter, referred to as the collagen promoter DNA). […]

Row | Compound | inhibition at 1 µM [%]
1 | Cc1cc(O)c(C(=O)C=Cc2ccc(OC(F)(F)F)c(Cl)c2)c(=O)[nH]1 [Compound No. (3a-32), 4-hydroxy-3-[3-[3-chloro-4-(trifluoromethoxy)phenyl]-1-oxo-2-propenyl]-6-methyl-2(1H)-pyridinone] | ≥ 70
2 | COc1c(C(=O)C=Cc2ccc(OC(F)(F)F)c(Cl)c2)c(=O)oc2ccccc12 [Compound No. (2c-17), 4-methoxy-3-[3-[3-chloro-4-(trifluoromethoxy)phenyl]-1-oxo-2-propenyl]-2H-1-benzopyran-2-one] | ≥ 70
3 | COC1=C(C(=O)C=Cc2ccc(OC(F)(F)F)c(Cl)c2)COC(C)=C1 [Compound No. (2a-17), 4-methoxy-3-[3-[3-chloro-4-(trifluoromethoxy)phenyl]-1-oxo-2-propenyl]-6-methyl-2H-pyran] | ≥ 70
4 | O=C(C=Cc1ccc(OC(F)(F)F)c(Cl)c1)c1c(O)c2ccccc2[nH]c1=O [Compound No. (3c-32), 4-hydroxy-3-[3-[3-chloro-4-(trifluoromethoxy)phenyl]-1-oxo-2-propenyl]-2(1H)-quinolinone] | ≥ 70
